US7592003B2, “Regulation of toll-like receptors on stem cells” (Oklahoma Medical Research Foundation, priority 2005, dated 2009)

Assays:
CLP [1] = assay: Single cell culture of TLR ligand pre-treated CLP on OP9 stromal cells; format: cell-based, mouse; conditions: 24 h pre-treatment, 10 days on OP9
Procedure: FIG. 7—Altered differentiation patterns of single lymphoid progenitors activated via TLRs. Sorted CLP were cultured in the presence of SCF, FL and IL-7 with medium alone, LPS (10 μg/ml) or Pam3CSK4 (1 μg/ml). After 24 h, cultured cells were harvested and washed three times with medium. Single cultured cells were then sorted and re-cultured on OP9 stromal cells in 96-well plates for 10 days in the presence of SCF, FL and IL-7. Positive colonies were examined by flow cytometry (representative examples shown on top row). The frequencies of wells with each of these differentiation patterns are shown along with total numbers of clones observed.
Single cell culture on OP9 stromal cells. Sorted CLP were cultured with X-VIVO15in the presence of SCF (20 ng/ml), FL (100 ng/ml) and IL-7 (1 ng/ml) with or without LPS (10 μg/ml), or Pam3CSK4 (1 μg/ml). After 24 h, cultured cells were harvested and washed with medium three times. A single cell sorting for the cultured cells was then conducted on a FACSAria™ and a single cell was plated on OP9 stromal cells in 96-well plate and cultured for 10 days in the presence of SCF (20 ng/ml), FL (100 ng/ml) and IL-7 (1 ng/ml). […] Positive wells (more than 30 cells) were determined by microscopic observation. Cells were harvested and then stained with mAbs to CD19, CD11c, and Mac-1 and analyzed by flow cytometry. […]

CLP [2] = assay: Serum-free, stromal cell-free culture of CLP with SCF, FL and IL-7, CD19/Mac-1 flow cytometry; format: cell-based, mouse
Procedure: FIGS. 6A-D—TLR stimulation allows lymphoid biased progenitors to produce myeloid dendritic cells at the expense of B lymphopoiesis. (FIG. 6A) Sorted CLP (5,000/well) from C57BL/6 or MyD88^−/− mice were stimulated in X-VIVO15 with medium alone, LPS (10 μg/ml) or Pam3CSK4 (100 ng/ml) plus SCF, FL and IL-7. After 7 days in culture, cells were analyzed by flow cytometry for expression of CD19and Mac-1 (left). The bar graphs depict cell yields for CD19^+ cells or Mac-1^+ cells (right) and the data represent mean values with standard deviations from triplicate cultures (*P<0.02). The results are representative of those obtained in five independent experiments. (FIG. 6B) Subsets of the recovered cells described in FIG. 6A were sorted and used to prepare Giemsa stained slides. (FIG. 6C) Cultured cells from C57BL/6 mice were also analyzed by flow cytometry for expression of Gr-1 and CD11c. (FIG. 6D) Sorted CLP from C57BL/6 mice were cultured in the presence of SCF, FL and IL-7 with a range of concentrations of LPS or combination of recombinant mouse CD14-Fc protein (1 μg/ml) plus LPS. After 7 days in culture, cells were analyzed by flow cytometry for expression of CD19 and Mac-1 (left). The bar graph depicts cell yields for CD19^+ cells or Mac-1^+ cells (right). Data represent mean values with standard deviations from triplicate cultures (*P<0.003). […]

Pam3CSK4
Numbers of pure CD19+ B cell clones (CLP [1]): did not alter the production of CD19^+ B cell clones
Numbers of pure mDC colonies (CLP [1]): enhanced production of colonies with pure mDC
Phenotype (CD11c, Gr-1) of cells produced from CLP (CLP [2]; 7 days): Gr-1^− but less homogenous
Cell types emerging from CLP (CD19+ vs Mac-1+) (CLP [2]; with SCF, FL and IL-7, 7 days): a mixture of the two cell types
